Reference: ChEMBL document CHEMBL1128907, “Platelet glycoprotein IIbIIIa receptor (GPIIbIIIa) antagonists derived from amidinoindoles” (Bioorg Med Chem Lett, 1996)
Square brackets hold non-standard residues; d marks the D form. Peptide text beside a SMILES is read from it. Pen = CC(C)(S)[C@H](N)C(=O)O; Mpa = O=C(O)CCS

How the values were obtained:
[1] = biological target: Integrin alpha-IIb/beta-3 (Homo sapiens, UniProt P05106+P08514); test: Inhibition of platelet glycoprotein alpha IIb beta-3 integrin in ELISA
Integrin alpha-IIb/beta-3, sequence (P05106 27-788 limits assumed): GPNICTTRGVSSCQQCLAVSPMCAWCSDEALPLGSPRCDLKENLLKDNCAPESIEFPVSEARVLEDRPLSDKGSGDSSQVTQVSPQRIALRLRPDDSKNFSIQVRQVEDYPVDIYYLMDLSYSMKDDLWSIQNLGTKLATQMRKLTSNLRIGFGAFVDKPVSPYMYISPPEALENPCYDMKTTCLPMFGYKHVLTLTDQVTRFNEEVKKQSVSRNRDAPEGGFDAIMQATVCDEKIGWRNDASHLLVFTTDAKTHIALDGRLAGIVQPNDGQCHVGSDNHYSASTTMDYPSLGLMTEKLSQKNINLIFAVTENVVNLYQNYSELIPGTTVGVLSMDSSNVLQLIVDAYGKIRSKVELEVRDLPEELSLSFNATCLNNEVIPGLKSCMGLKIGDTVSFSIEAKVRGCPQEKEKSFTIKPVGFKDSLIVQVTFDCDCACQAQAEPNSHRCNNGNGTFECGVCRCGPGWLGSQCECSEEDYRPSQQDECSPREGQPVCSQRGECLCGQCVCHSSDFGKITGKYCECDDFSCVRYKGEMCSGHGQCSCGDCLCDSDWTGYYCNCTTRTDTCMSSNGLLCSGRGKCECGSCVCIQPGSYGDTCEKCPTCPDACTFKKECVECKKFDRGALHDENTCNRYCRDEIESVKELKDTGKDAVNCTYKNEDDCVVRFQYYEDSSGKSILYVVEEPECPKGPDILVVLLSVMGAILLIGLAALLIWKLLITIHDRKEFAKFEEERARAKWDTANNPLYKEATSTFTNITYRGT
Integrin alpha-IIb/beta-3, sequence (P08514 32-887 limits assumed): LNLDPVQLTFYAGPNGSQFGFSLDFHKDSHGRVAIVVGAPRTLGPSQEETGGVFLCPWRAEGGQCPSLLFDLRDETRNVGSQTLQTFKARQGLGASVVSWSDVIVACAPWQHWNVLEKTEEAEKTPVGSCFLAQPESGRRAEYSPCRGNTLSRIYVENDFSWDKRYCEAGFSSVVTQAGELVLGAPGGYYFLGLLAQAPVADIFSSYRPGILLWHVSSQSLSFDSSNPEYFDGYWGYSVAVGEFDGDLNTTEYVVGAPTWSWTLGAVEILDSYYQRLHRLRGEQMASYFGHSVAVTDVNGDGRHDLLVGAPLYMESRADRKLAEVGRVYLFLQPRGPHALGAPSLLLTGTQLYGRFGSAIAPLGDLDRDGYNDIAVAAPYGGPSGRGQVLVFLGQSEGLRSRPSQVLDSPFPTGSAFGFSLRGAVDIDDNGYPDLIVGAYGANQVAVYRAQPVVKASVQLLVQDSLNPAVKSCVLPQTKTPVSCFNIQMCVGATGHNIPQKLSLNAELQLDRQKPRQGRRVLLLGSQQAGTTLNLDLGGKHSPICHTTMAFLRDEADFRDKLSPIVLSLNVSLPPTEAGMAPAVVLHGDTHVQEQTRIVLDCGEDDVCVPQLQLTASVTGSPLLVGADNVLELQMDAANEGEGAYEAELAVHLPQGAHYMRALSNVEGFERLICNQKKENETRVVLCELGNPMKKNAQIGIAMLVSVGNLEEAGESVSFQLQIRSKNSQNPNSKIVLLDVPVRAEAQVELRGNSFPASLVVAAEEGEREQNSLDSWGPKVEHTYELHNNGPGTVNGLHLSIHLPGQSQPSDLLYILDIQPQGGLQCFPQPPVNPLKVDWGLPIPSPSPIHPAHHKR
Integrin alpha-IIb/beta-3, sequence (P08514 891-1039 limits assumed): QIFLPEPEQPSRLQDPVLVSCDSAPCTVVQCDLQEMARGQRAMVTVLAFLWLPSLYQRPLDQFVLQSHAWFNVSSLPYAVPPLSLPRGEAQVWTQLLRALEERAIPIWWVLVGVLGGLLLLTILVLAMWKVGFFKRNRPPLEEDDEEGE

Homo sapiens = species: Homo sapiens; test: Functional inhibition of the GPIIb-IIIa receptor was reflected as its ability to antagonize ADP induced platelet aggregation in human platelet-rich plasma; type: organism-based

## CC(C)(S)[C@H](NC(=O)[C@H](CCCN=C(N)N)NC(=O)[C@H](Cc1c[nH]c2ccccc12)NC(=O)[C@H](CC(=O)O)NC(=O)CNC(=O)[C@H](CCCN=C(N)N)NC(=O)CCS)C(N)=O ([Mpa]RGDWR[Pen]-NH2)
[1]
  IC50: 0.12 µM
Homo sapiens
  IC50: 280 nM

## N=C(N)c1ccc2[nH]cc(C(=O)NCCCCCCC(=O)O)c2c1
[1]
  IC50: > 100 µM
Homo sapiens
  IC50: > 100000 nM

## N=C(N)c1cccc(NCC(=O)NCCCCCCC(=O)O)c1
[1]
  IC50: 64 µM
Homo sapiens
  IC50: > 100000 nM

## N=C(N)c1ccc(NCC(=O)NCCCCCCC(=O)O)cc1
Homo sapiens
  IC50: 67000 nM

## N=C(N)c1ccc2[nH]c(C(=O)NCCCCCCCC(=O)O)cc2c1
Homo sapiens
  IC50: > 100000 nM

## N=C(N)c1ccc2[nH]c(C(=O)NCCCCCCC(=O)O)cc2c1
Homo sapiens
  IC50: 2700 nM

## N=C(N)c1ccc2c(C(=O)NCCCCCCC(=O)O)c[nH]c2c1
[1]
  IC50: 0.1 µM
Homo sapiens
  IC50: 650 nM

## N=C(N)c1ccc2cc(C(=O)NCCCCCCC(=O)O)[nH]c2c1
[1]
  IC50: 0.15 µM
Homo sapiens
  IC50: 1300 nM

## N=C(N)c1ccc2[nH]cc(C(=O)NCCCCCCCC(=O)O)c2c1
[1]
  IC50: > 100 µM
Homo sapiens
  IC50: > 100000 nM

## N=C(N)c1ccc2[nH]c(C(=O)NCCCCCC(=O)O)cc2c1
[1]
  IC50: 30 µM
Homo sapiens
  IC50: > 100000 nM
